Assay results reported in patent publication US20260345621A1, “GABAA RECEPTOR MODULATORS AND USES THEREOF” (Engrail Therapeutics, Inc., priority 2022, published 2026).
Entries after “also recorded” stand apart in the source; their conditions may differ. Where two headings read alike, the source gives them in different places.

Legend:
[1] = Multiple ascending dose study, plasma pharmacokinetics; assay type: in vivo, human (healthy volunteers); details: for AUC tau / Cmax at 288 h / half-life / Tmax at 288 h: Day 12; for AUC(0-t) at 24 h / Cmax at 24 h / Tmax at 24 h: Day 1
Description: A clinical study was developed to evaluate safety, tolerability, pharmacokinetics, and pharmacodynamics of Compound 1 at plasma steady-state in 40 healthy human volunteers. Compound 1 (provided as Compound 1 phosphate) was administered to participants as multiple ascending doses of 0.5 mg (N=6), 1.0 mg (N=6), 1.5 mg (N=6), 2.0 mg (N=6), or 5.0 mg (N=6) once daily (QD) for 12 days.
Blood samples were collected, and plasma concentrations were measured using a validated high performance liquid chromatography/liquid chromatography-mass spectrometry/mass spectrometry method. The PK parameters assessed included Cmax, Tmax, AUC from administration to the end of dosing (AUC0-t), AUC0-24, AUC0-inf, t1/2, terminal rate constant (λz), apparent total clearance of the drug from plasma (CL/F), and apparent volume of distribution during terminal phase after non-intravenous administration (Vz/F).
The plasma concentration data for Compound 1 were summarized by dose level and the planned sampling time points using descriptive statistics (n, SD, median, minimum, maximum, geometric mean, and coefficient of variance (CV %) for the geometric mean) for the PK Analysis Set.
Specifically, samples for PK analyses were taken on Day 1 and Day 12 pre-dose, 0.5, 1, 1.5, 3, 6, 8, 10, and 12 h post-dose, with additional samples taken on every dosing Day (24 hours after the previous day's dose) and 24, 72, 168, and 336 h after last dosing on Day 12. All individual Compound 1 concentrations were above the LLOQ of 0.0500 ng/mL at 0.5 h post-dose, except for 1 participant, for whom the concentration was above the LLOQ at 1 h post-dose.

[2] = Stability of solutions/suspensions at room temperature; assay type: physicochemical
Source text: The dosage forms provided herein may be prepared and placed in a container for storage at ambient or elevated temperature. […] This is beneficial because transportation of commercially viable dosage forms may benefit from stability at temperatures greater than those requiring refrigeration or sub-freezing environments during transportation and storage at the site of use.

[3] = test system: sleep stages; test: Sleep-stage analysis in wirelessly implanted rats; details: Lorazepam 1 mg/kg IP
[4] = human, plasma, po, 2 mg, 2.0 mg oral QD, read-out: Cmax (mean)
[5] = human, plasma, po, 2 mg, 2.0 mg oral QD, read-out: Cmax (median)
[6] = human, plasma, po, 5 mg, 5.0 mg oral QD, read-out: Cmax (mean)
[7] = human, plasma, po, 5 mg, 5.0 mg oral QD, read-out: Cmax (median)
[8] = human, plasma, 0.5 mg oral QD, read-out: Tmax (median)
[9] = human, plasma, 1.0 mg oral QD, read-out: Tmax (median)
[10] = human, plasma, 1.5 mg oral QD, read-out: Tmax (median)
[11] = human, plasma, 2.0 mg oral QD, read-out: Tmax (median)
[12] = human, plasma, 5.0 mg oral QD, read-out: Tmax (median)

Molecule `CC(C)(O)c1cnn2c(-c3ccc(F)c(-c4c(F)cccc4C#N)c3)cnc2n1` [Compound 1, 2′,6-difluoro-5′-(3-(2-hydroxypropan-2-yl)imidazo[1,2-b][1,2,4]triazin-7-yl)-[1,1′-biphenyl]-2-carbonitrile] has an AUC tau ([1]; human, plasma, po, 1.5 mg, 1.5 mg oral QD, read-out: AUCtau (median)) of 738 ng·h/mL, a Cmax at 288 h ([1]; human, plasma, po, 1.5 mg, 1.5 mg oral QD, read-out: Cmax (mean)) of 41.7 ± 5 ng/mL and a Cmax at 288 h ([1]; human, plasma, po, 1.5 mg, 1.5 mg oral QD, read-out: Cmax (median)) of 42.6 ng/mL. It also gave a half-life ([1]; human, plasma, po, 1.5 mg, 1.5 mg oral QD, read-out: t1/2 (mean) (converted)) of 51 ± 18 h, a half-life ([1]; human, plasma, po, 1.5 mg, 1.5 mg oral QD, read-out: t1/2 (median) (converted)) of 49.1 h and an AUC(0-t) at 24 h ([1]; human, plasma, po, 2 mg, 2.0 mg oral QD, read-out: AUC0-24 (mean)) of 244 ± 48 ng·h/mL. It also gave an AUC(0-t) at 24 h ([1]; human, plasma, po, 2 mg, 2.0 mg oral QD, read-out: AUC0-24 (median)) of 226 ng·h/mL, a Cmax at 24 h [1, 4] of 19.6 ± 4 ng/mL and a Cmax at 24 h [1, 5] of 19.9 ng/mL. The AUC tau ([1]; human, plasma, po, 2 mg, 2.0 mg oral QD, read-out: AUCtau (mean)) was 873 ± 331 ng·h/mL, the AUC tau ([1]; human, plasma, po, 2 mg, 2.0 mg oral QD, read-out: AUCtau (median)) was 891 ng·h/mL and the Cmax at 288 h [1, 4] was 49.8 ± 17 ng/mL. It also gave a Cmax at 288 h [1, 5] of 48.2 ng/mL, a half-life ([1]; human, plasma, po, 2 mg, 2.0 mg oral QD, read-out: t1/2 (mean) (converted)) of 61 ± 26 h and a half-life ([1]; human, plasma, po, 2 mg, 2.0 mg oral QD, read-out: t1/2 (median) (converted)) of 52.3 h. It also gave an AUC(0-t) at 24 h ([1]; human, plasma, po, 5 mg, 5.0 mg oral QD, read-out: AUC0-24 (mean)) of 642 ± 125 ng·h/mL, an AUC(0-t) at 24 h ([1]; human, plasma, po, 5 mg, 5.0 mg oral QD, read-out: AUC0-24 (median)) of 609 ng·h/mL and a Cmax at 24 h [1, 6] of 49.7 ± 13 ng/mL. For the same molecule, the Cmax at 24 h [1, 7] was 49.5 ng/mL, the AUC(0-t) at 24 h ([1]; human, plasma, po, 5 mg, 5.0 mg oral QD, read-out: highest individual AUC0-24) was 853 ng·h/mL and the AUC tau ([1]; human, plasma, po, 5 mg, 5.0 mg oral QD, read-out: AUCtau (mean)) was 1800 ng·h/mL. It also gave an AUC tau ([1]; human, plasma, po, 5 mg, 5.0 mg oral QD, read-out: AUCtau (median)) of 1800 ng·h/mL, a Cmax at 288 h [1, 6] of 99.1 ng/mL and a Cmax at 288 h [1, 7] of 106 ng/mL. It also gave an AUC tau ([1]; human, plasma, po, 5 mg, 5.0 mg oral QD, read-out: highest individual AUCtau) of 2170 ng·h/mL, a half-life ([1]; human, plasma, po, 5 mg, 5.0 mg oral QD, read-out: t1/2 (mean) (converted)) of 39 ± 9 h and a half-life ([1]; human, plasma, po, 5 mg, 5.0 mg oral QD, read-out: t1/2 (median) (converted)) of 37.1 h. The concentration at 0.5 h ([1]; human, plasma, po, 0.5 h post-dose, all except 1 participant, read-out: individual plasma concentrations versus LLOQ) was over 0.05 ng/mL, the Tmax ([1]; human, plasma, po, Day 1 and Day 12, all doses except 5.0 mg on Day 1, read-out: Tmax (median)) was 3 h and the Tmax at 24 h [1, 8] was 3 h. For the same molecule, the Tmax at 288 h [1, 8] was 3 h, the Tmax at 24 h [1, 9] was 3 h and the Tmax at 288 h [1, 9] was 3 h. The Tmax at 24 h [1, 10] was 3 h, the Tmax at 288 h [1, 10] was 3 h and the Tmax at 24 h [1, 11] was 3 h. It also gave a Tmax at 288 h [1, 11] of 3 h, a Tmax at 24 h [1, 12] of 4.5 h and a Tmax at 288 h [1, 12] of 3 h. For the same molecule, the Tmax at 24 h ([1]; human, plasma, up to 2.0 mg oral QD, read-out: Tmax (median)) was 3 h, the absorption ([1]; oral) was “rapidly absorbed” and the “end of absorption and distribution phase” value ([1]; plasma, after which elimination phase commenced) was “approximately 12 h”. The concentration decline profile ([1]; plasma, oral QD) was “bi-exponential decline”, the “variability in key PK parameters” value ([1]; up to 5.0 mg repeatedly for 12 days) was “acceptable” and the “stability of standard solutions” value ([2]; 20 μg/mL) was 6 days. The “stability of samples in 0.5% TYLOSE MH 300” value ([2]; 0.12 to 7.2 mg/mL) was 8 days, the NREM onset ([3]; Compound 1 1 mg/kg PO) was “did not change NREM onset; also recorded: does not decrease time to Non-REM onset” and the “Active Wake” value ([3]; Compound 1 PO) was “decreased Active Wake”. For the same molecule, the NREM ([3]; Compound 1 PO) was “increased NREM” and the “Quiet Wake” value ([3]; Compound 1 PO) was “only Compound 1 decreased Quiet Wake”.
